# In US7799955B2, “Isoflavone metabolites” (priority 1999, dated 2010):
# Like-named read-outs stand apart in the source and are kept apart here.
# Experiments:
# [1] = tested on: MDA-MB-468 (estrogen negative) cancer cells; test: Inhibition of MDA-MB-468 (estrogen negative) breast cancer cells; assay type: cell-based; conditions: for IC50, MDA-MB-468 cells / IC50: day 6; for IC50: Homo sapiens, MDA-MB-468, 144 h
# [2] = tested on: MCF-7 cells; test: MTS in vitro cytotoxicity / cell viability assay on MCF-7 breast cancer cells; assay type: cell-based; conditions: for IC50: Homo sapiens; for inhibition of MCF7 cells at low concentration / proliferative activity of cancer cells at low concentration: concentrations of less than or equal to 10 μM
# Protocol: Compound A was compared with genistein to test the cell viability of MCF-7 cells. […] The cell viability was tested using the MTS in vitro cytotoxicity assay. This is considered the most convenient assay because of its ease of use, accuracy and rapid indication of toxicity (Malich G et al., Toxicology 124(3): 179-92 (1997).
# [3] = tested on: LNCap cells; test: IC50 against LNCap cells; assay type: cell-based; conditions: Homo sapiens
# [4] = tested on: PC3 cells; test: IC50 against PC3 cells; assay type: cell-based; conditions: Homo sapiens, PC-3
# [5] = tested on: MCF-7 cells; conditions: cited from earlier work; for effect on growth of MCF-7 cells at low concentration: at <10 μM
# [6] = day 6 of incubation, Examples 10 and 11
# [7] = MCF7, Example 8 table, read-out: IC50 against MCF-7 cells
# [8] = MCF7, 24 h, 1 day of incubation, Example 8, read-out: IC50, cell viability of MCF-7 cells
# [9] = MCF7, 48 h, 2 days of incubation, Example 8, read-out: IC50, cell viability of MCF-7 cells
# [10] = MCF7, 72 h, 3 days of incubation, Example 8, read-out: IC50, cell viability of MCF-7 cells
# [11] = MCF7, 144 h, day 6 of incubation, Examples 10 and 11, read-out: IC50, MCF-7 estrogen positive breast cancer cells
# [12] = MCF7, 8 hours incubation, Example 9, read-out: IC50, MCF7 cells
# [13] = MCF7, Example 9, incubation time not given, read-out: IC50, inhibitory effect on MCF7 cells (no significant effect)
compound,measurement,setting,value
CC(C(=O)c1c(O)cc(O)cc1O)c1ccc(O)cc1 (centres unmarked) [6-hydroxy-O-Dma],"IC50, MDA-MB-468 cells",[1],43 µg/mL
same,"IC50, MCF-7 estrogen positive breast cancer cells",[2]; [6],33 µg/mL
"CC(C(=O)c1ccc(O)cc1O)c1ccc(O)c(O)c1 (centres unmarked) [(V), 1-(2,4,dihydroxyphenyl)-2-(3,4-dihydroxyphenyl)-propan-1-one]",IC50,[2]; [7],10 to 20 µg/mL
"C=C(C(=O)c1ccc(O)cc1O)c1ccc(O)c(O)c1 [(VI), 1-(2,4-di-hydroxyphenyl)-2-(3,4-dihydroxyphenyl)-prop-2-cn-1-one]",IC50,[3],7 µg/mL
same,IC50,[4],6.2 µg/mL
same,IC50,[2]; [7],3.2 µg/mL
"O=C1c2ccc(O)cc2OCC1c1ccc(O)c(O)c1 (centres unmarked) [(VII), 3′-hydroxy-dihydrodaidzen]",IC50,[2]; [7],~28 µg/mL
"C=C(C(=O)c1cc(O)c(O)cc1O)c1ccc(O)cc1 [(VIII), 1-(2,4,5-trihydroxyphenyl)-2-(4-hydroxyphenyl)-prop-2-cn-1-one]",IC50,[2]; [7],< 8 µg/mL
"CC(C(=O)c1cc(O)c(O)cc1O)c1ccc(O)cc1 (centres unmarked) [Compound A, 1-(2,4,5-trihydroxyphenyl)-2-(4-hydroxyphenyl)-propan-1-one]",IC50,[1],6.8 µg/mL
same,times more inhibitive than O-Dma and 6-hydroxy-O-Dma,"[1]; MDA-MB-468, day 6",3-7 times
same,effect on growth of MCF-7 cells at low concentration,"[2]; 2.5 micrograms/ml, within 8 hours of incubation and at days 1 and 2",inhibited the growth
same,IC50,[2]; [8],6 µg/mL
same,IC50,[2]; [9],6.5 µg/mL
same,IC50,[2]; [10],7 µg/mL
same,IC50,[2]; [11],2.1 µg/mL
same,IC50,[2]; [12],6 µg/mL
same,IC50,[2]; [7],6 to 10 µg/mL
same,IC50,"[2]; MCF7, incubations at 24, 48, 72 and 144 hours, Example 9, read-out: IC50, MCF7 cells",4 to 7 µg/mL
same,"inhibition of MCF7 breast cancer cells compared with genistein, daidzein, precursors and metabolites","[2]; concentrations of 15-40 μg/ml, Example 9",significant inhibition
same,inhibition of MCF7 cells at low concentration,[2]; Example 9,no significant inhibition
same,proliferative activity of cancer cells at low concentration,"[2]; MCF7, Example 9",no proliferative activity
"O=c1c(-c2ccc(O)cc2)coc2cc(O)c(O)cc12 [Factor 2, 6,7,4′-trihydroxyisoflavone]",IC50,[2]; [11],12 µg/mL
"CC(C(=O)c1ccc(O)cc1O)c1ccc(O)cc1 (centres unmarked) [O-Dma, O-desmethylangolensin]","IC50, MDA-MB-468 cells",[1],20 µg/mL
same,"IC50, MCF-7 estrogen positive breast cancer cells",[2]; [6],38 µg/mL
COc1ccc(-c2coc3cc(O)cc(O)c3c2=O)cc1 [biochanin A],IC50,"[2]; MCF7, 72 and 144 hours incubation, Example 9, read-out: IC50, inhibitory effect on MCF7 cells",18 to 23 µg/mL
same,effect on growth of MCF-7 cells at low concentration,[5],can enhance the growth
O=c1c(-c2ccc(O)cc2)coc2cc(O)ccc12 [daidzein],IC50,[2]; [13],≥ 36 µg/mL
same,effect on growth of MCF-7 cells at low concentration,[5],can enhance the growth
Oc1ccc([C@H]2COc3cc(O)ccc3C2)cc1 [equol],IC50,[2]; [13],≥ 36 µg/mL
same,effect on growth of MCF-7 cells at low concentration,[5],can enhance the growth
COc1ccc(-c2coc3cc(O)ccc3c2=O)cc1 [formononetin],IC50,[2]; [13],≥ 36 µg/mL
O=c1c(-c2ccc(O)cc2)coc2cc(O)cc(O)c12 [genistein],IC50,[1],8.8 µg/mL
same,IC50,[2]; [8],32 µg/mL
same,IC50,[2]; [9],22 µg/mL
same,IC50,[2]; [10],15 µg/mL
same,IC50,"[2]; MCF7, 144 h, 6 days of incubation, Example 8, read-out: IC50, cell viability of MCF-7 cells",18 µg/mL
same,IC50,[2]; [12],> 40 µg/mL
same,IC50,"[2]; MCF7, 48 hours incubation, Example 9, read-out: IC50, MCF7 cells",38 µg/mL
same,IC50,"[2]; MCF7, 144 hours incubation, Example 9, read-out: IC50, MCF7 cells",15 µg/mL
same,effect on growth of MCF-7 cancer cells at low concentration,"[2]; concentrations <10 μM, Example 8",enhance rather than inhibit the growth
same,inhibition of MCF7 cells at low concentration,[2]; Example 9,no significant inhibition
same,proliferative activity of cancer cells at low concentration,"[2]; MCF7, Example 9",some proliferative activity
same,effect on growth of MCF-7 cells at low concentration,[5],can enhance the growth
same,IC50,"[5]; induced by 1-(o-chlorophenyl)-1-(p-chlorophenyl)-2,2,2-trichloroethane, 5-octylphenol, 4-nonylphenol, read-out: IC50, inhibition of proliferation of MCF-7 cells induced by environmental chemicals",25 to 33 µM
